This passage reports Kd and EC50 results from patent publication US20250382277A1, “SMALL MOLECULE INHIBITORS OF DYRK/CLK AND USES THEREOF” (Arizona Board of Regents on Behalf of the University of …, priority 2022, published 2025).

Structures can show the parent of a compound that is named as a salt.

Assay [1] has as its target DYRK1A (Homo sapiens, UniProt Q13627). The experiment in a line: biochemical.
Experimental: KDs were obtained from Eurofins. The KdELECT Kinase Assay Panel enables quantitated compound binding affinity against any kinase assay. Inhibitor binding constants (Kd values) are calculated from duplicate 11-point dose-response curves. Measurements are made under optimized conditions that generate true thermodynamic Kd values which facilitate direct comparison of inhibitor affinity across kinases.
The subject of assay [2] is WNT signaling. Kind of assay: WNT reporter assay (TopGFP reporter). The conditions noted are these: Human Colonic Epithelial Cells (HCEC) with TopGFP reporter, stimulated with 10 μM CHIR99021, 24 hours. Format: cell-based. The source says: KDs were obtained from Eurofins.

The term Kd denotes the free concentration of one partner at which half of the binding sites on the other are occupied at equilibrium, for simple one-to-one binding. A lower Kd goes with higher affinity. What is called EC50 is the concentration giving half of the maximal effect. A lower EC50 goes with an effect from little substance. Turning to `Nc1cc(-c2ccc3ncnc(-c4ccc(N5CCOCC5)c(F)c4)c3c2)ccn1` [Compound 1, 4-(4-(3-fluoro-4-morpholinophenyl)quinazolin-6-yl)pyridin-2-amine], the Kd in assay [1] was < 100 nM. The same compound had an EC50 in assay [2] of 100 to 1000 nM.
The like results for `Nc1cc(-c2ccc3ncnc(-c4ccc(CN5CCOCC5)c(F)c4)c3c2)ccn1` [Compound 3, 4-(4-(3-fluoro-4-(morpholinomethyl)phenyl)quinazolin-6-yl)pyridin-2-amine] were, in that order, < 100 nM and 100 to 1000 nM.
The matching figures for `Nc1cc(-c2ccc3ncnc(-c4cccc(N5CCOCC5)c4)c3c2)ccn1` [Compound 4, 4-(4-(3-morpholinophenyl)quinazolin-6-yl)pyridin-2-amine]: < 100 nM and > 1000 nM.
As for `Nc1cc(-c2ccc3ncnc(-c4cc(F)cc(N5CCOCC5)c4)c3c2)ccn1` [Compound 5, 4-(4-(3-fluoro-5-morpholinophenyl)quinazolin-6-yl)pyridin-2-amine], in assay [1], the Kd was < 100 nM.
With `Nc1cc(-c2ccc3ncnc(-c4ccc(N5CCS(=O)(=O)CC5)cc4)c3c2)ccn1` [Compound 6, 4-(4-(6-(2-aminopyridin-4-yl)quinazolin-4-yl)phenyl)thiomorpholine 1,1-dioxide], the Kd in assay [1] is < 100 nM.
On the same count and under the same terms, the same measure for `CN1CCN(c2ccc(-c3ncnc4ccc(-c5ccnc(N)c5)cc34)cc2)CC1` [Compound 7, 4-(4-(4-(4-methylpiperazin-1-yl)phenyl)quinazolin-6-yl)pyridin-2-amine]: < 100 nM.
In the case of `Nc1cc(-c2ccc3ncnc(-c4cccc(CN5CCOCC5)c4)c3c2)ccn1` [Compound 8, 4-(4-(3-(morpholinomethyl)phenyl)quinazolin-6-yl)pyridin-2-amine], the Kd in assay [1] was < 100 nM. Besides, the EC50 in assay [2] is > 1000 nM.
Turning to `CN1CCN(c2ncc(-c3ncnc4ccc(-c5ccnc(N)c5)cc34)cc2F)CC1` [Compound 9, 4-(4-(5-fluoro-6-(4-methylpiperazin-1-yl)pyridin-3-yl)quinazolin-6-yl)pyridin-2-amine], the Kd in assay [1] was < 100 nM. Besides, the concentration giving a half-maximal response (EC50) in assay [2] is 100 to 1000 nM.
Consider `Nc1cc(-c2ccc3ncnc(-c4ccc(N5CCOCC5)nc4)c3c2)ccn1` [Compound 10, 4-(4-(6-morpholinopyridin-3-yl)quinazolin-6-yl)pyridin-2-amine], for which the Kd in assay [1] is < 100 nM.
Consider `Nc1cc(-c2ccc3ncnc(-c4cnc(N5CCOCC5)c(F)c4)c3c2)ccn1` [Compound 11, 4-(4-(5-fluoro-6-morpholinopyridin-3-yl)quinazolin-6-yl)pyridin-2-amine], for which the Kd in assay [1] was < 100 nM. Besides, the EC50 in assay [2] is 100 to 1000 nM.
In the case of `Nc1cc(-c2ccc3ncnc(-c4ccc(N5CCOCC5)c(F)c4)c3n2)ccn1` [Compound 12, 4-(4-(3-fluoro-4-morpholinophenyl)pyrido[3,2-d]pyrimidin-6-yl)pyridin-2-amine], the Kd in assay [1] was < 100 nM. The EC50 in assay [2] was < 100 nM.
In the case of `Nc1cc(-c2ccc3nccc(-c4cnc(N5CCOCC5)c(F)c4)c3c2)ccn1` [Compound 13, 4-(4-(5-fluoro-6-morpholinopyridin-3-yl)quinolin-6-yl)pyridin-2-amine], the EC50 in assay [2] is 100 to 1000 nM.
In the case of `Nc1cc(-c2ccc3ncnc(-c4ccnc(N5CCOCC5)c4)c3c2)ccn1` [Compound 14, 4-(4-(2-morpholinopyridin-4-yl)quinazolin-6-yl)pyridin-2-amine], the Kd in assay [1] was < 100 nM. In assay [2], the EC50 is > 1000 nM.
For the compound `Nc1nccc(-c2ccc3ncnc(-c4ccc(N5CCOCC5)c(F)c4)c3c2)n1` [Compound 15, 4-(4-(3-fluoro-4-morpholinophenyl)quinazolin-6-yl)pyrimidin-2-amine], in assay [1], the equilibrium dissociation constant (Kd) is < 100 nM. In addition, the EC50 in assay [2] lay in the range of 100 to 1000 nM.
For `Nc1cc(-c2ccc3ncnc(-c4ccc(N5CCOCC5)cc4)c3c2)ccn1` [Compound 16, 4-(4-(4-morpholinophenyl)quinazolin-6-yl)pyridin-2-amine], the Kd in assay [1] is < 100 nM. In addition, in assay [2], the EC50 was 100 to 1000 nM.
In the case of `Cc1cc(-c2ccc3ncnc(-c4ccc(N5CCOCC5)c(F)c4)c3n2)ccn1` [Compound 17, 4-(2-fluoro-4-(6-(2-methylpyridin-4-yl)pyrido[3,2-d]pyrimidin-4-yl)phenyl)morpholine], in assay [1], the Kd was < 100 nM. The EC50 in assay [2] was > 1000 nM.
Regarding `Nc1cc(-c2ccc3ncnc(-c4ccc(CN5CCOCC5)cc4)c3c2)ccn1` [Compound 18, 4-(4-(4-(morpholinomethyl)phenyl)quinazolin-6-yl)pyridin-2-amine], the Kd in assay [1] is > 1000 nM.
As for `Nc1cc(-c2ccc3ncnc(-c4cnc(N5CCC(N6CCOCC6)CC5)c(F)c4)c3c2)ccn1` [Compound 19, 4-(4-(5-fluoro-6-(4-morpholinopiperidin-1-yl)pyridin-3-yl)quinazolin-6-yl)pyridin-2-amine], the Kd in assay [1] was < 100 nM. In addition, in assay [2], the EC50 was 100 to 1000 nM.
The like results for `CC1(C)CN(c2ncc(-c3ncnc4ccc(-c5ccnc(N)c5)cc34)cc2F)CCO1` [Compound 20, 4-(4-(6-(2,2-dimethylmorpholino)-5-fluoropyridin-3-yl)quinazolin-6-yl)pyridin-2-amine] were, in that order, < 100 nM and > 1000 nM.
`COc1ccc(-c2ncnc3ccc(-c4ccnc(N)c4)cc23)cc1C` [Compound 21, 4-(4-(4-methoxy-3-methylphenyl)quinazolin-6-yl)pyridin-2-amine]: in assay [1], the Kd is < 100 nM. Also, the EC50 in assay [2] was 100 to 1000 nM.
For the compound `CC(=O)N1CCN(c2ccc(-c3ncnc4ccc(-c5ccnc(N)c5)cc34)cc2)CC1` [Compound 22, 1-(4-(4-(6-(2-aminopyridin-4-yl)quinazolin-4-yl)phenyl)piperazin-1-yl)ethan-1-one], in assay [1], the Kd was < 100 nM. Besides, the EC50 in assay [2] is < 100 nM.
Turning to `Nc1cc(-c2ccc3ncnc(-c4cnc(N5CCC6(CCOC6)CC5)c(F)c4)c3c2)ccn1` [Compound 23, 4-(4-(5-fluoro-6-(2-oxa-8-azaspiro[4.5]decan-8-yl)pyridin-3-yl)quinazolin-6-yl)pyridin-2-amine hydrochloride], the equilibrium dissociation constant (Kd) in assay [1] is < 100 nM. The same compound gave an EC50 in assay [2] of 100 to 1000 nM.
The matching figures for `Nc1cc(-c2ccc3ncnc(-c4cnc(N5CCNCC5)c(F)c4)c3c2)ccn1` [Compound 24, 4-(4-(5-fluoro-6-(piperazin-1-yl)pyridin-3-yl)quinazolin-6-yl)pyridin-2-amine hydrochloride]: < 100 nM and > 1000 nM.
For `CN1CCN(c2ccc(-c3ncnc4ccc(-c5ccnc(N)c5)cc34)cc2F)CC1` [Compound 25, 4-(4-(3-fluoro-4-(4-methylpiperazin-1-yl)phenyl)quinazolin-6-yl)pyridin-2-amine], the Kd in assay [1] was < 100 nM. In addition, in assay [2], the EC50 is < 100 nM.
Regarding `CN1CCN(c2ncc(-c3ncnc4ccc(-c5c[nH]c6ncccc56)cc34)cc2F)CC1` [Compound 26, 4-(5-fluoro-6-(4-methylpiperazin-1-yl)pyridin-3-yl)-6-(1H-pyrrolo[2,3-b]pyridin-3-yl)quinazoline], the Kd in assay [1] was < 100 nM. The same compound came in with an EC50 in assay [2] of 100 to 1000 nM.
The like results for `Fc1cc(-c2ncnc3ccc(-c4c[nH]c5ncccc45)cc23)cnc1N1CCNCC1` [Compound 27, 4-(5-fluoro-6-(piperazin-1-yl)pyridin-3-yl)-6-(1H-pyrrolo[2,3-b]pyridin-3-yl)quinazoline] were, in that order, < 100 nM and 100 to 1000 nM.
Regarding `Nc1cc(-c2ccc3ncnc(-c4ccc(N5CC6(COC6)C5)c(F)c4)c3c2)ccn1` [Compound 28, 4-(4-(3-fluoro-4-(2-oxa-6-azaspiro[3.3]heptan-6-yl)phenyl)quinazolin-6-yl)pyridin-2-amine], in assay [1], the Kd is < 100 nM. In assay [2], this compound returned an EC50 of 100 to 1000 nM.
For the compound `CC(=O)N1CCN(c2ccc(-c3ncnc4ccc(-c5cn[nH]c5)cc34)cc2)CC1` [Compound 37, 1-(4-(4-(6-(1H-pyrazol-4-yl)quinazolin-4-yl)phenyl)piperazin-1-yl)ethan-1-one], the EC50 in assay [2] is < 100 nM.
`Nc1cc(-c2ccc3ncnc(-c4ccc(N5CC6(C5)CN(C5COC5)C6)c(F)c4)c3c2)ccn1` [Compound 57, 4-(4-(3-fluoro-4-(6-(oxetan-3-yl)-2,6-diazaspiro[3.3]heptan-2-yl)phenyl)quinazolin-6-yl)pyridin-2-amine] gave an EC50 in assay [2] of 100 to 1000 nM.
The same measure, in the same setting: the value for `CC(=O)N1CC2(C1)CN(c1ccc(-c3ncnc4ccc(-c5ccnc(N)c5)cc34)cc1F)C2` [Compound 58, 1-(6-(4-(6-(2-aminopyridin-4-yl)quinazolin-4-yl)-2-fluorophenyl)-2,6-diazaspiro[3.3]heptan-2-yl)ethan-1-one] was < 100 nM.
With `CS(=O)(=O)N1CCN(c2ccc(-c3ncnc4ccc(-c5ccnc(N)c5)cc34)cc2Cl)CC1` [Compound 59, 4-(4-(3-chloro-4-(4-(methylsulfonyl)piperazin-1-yl)phenyl)quinazolin-6-yl)pyridin-2-amine], the EC50 in assay [2] is < 100 nM.
As to `CN[C@H]1CCN(c2ccc(-c3ncnc4ccc(-c5ccnc(N)c5)cc34)cc2F)C1` [Compound 60, (S)-4-(4-(3-fluoro-4-(3-(methylamino)pyrrolidin-1-yl)phenyl)quinazolin-6-yl)pyridin-2-amine], in assay [2], the EC50 was > 1000 nM.
Turning to `Cc1cc(-c2ncnc3ccc(-c4ccnc(N)c4)cc23)ccc1N1CCN(C)CC1` [Compound 61, 4-(4-(3-methyl-4-(4-methylpiperazin-1-yl)phenyl)quinazolin-6-yl)pyridin-2-amine], the EC50 in assay [2] lay in the range of 100 to 1000 nM.
The same measure, in the same setting: the same measure for `CN1CCN(c2ccc(-c3ncnc4ccc(-c5ccnc(N)c5)cc34)cc2Cl)CC1` [Compound 62, 4-(4-(3-chloro-4-(4-methylpiperazin-1-yl)phenyl)quinazolin-6-yl)pyridin-2-amine]: < 100 nM; for `CS(=O)(=O)N1CCN(c2ccc(-c3ncnc4ccc(-c5ccnc(N)c5)cc34)cc2C(F)(F)F)CC1` [Compound 63, 4-(4-(4-(4-(methylsulfonyl)piperazin-1-yl)-3-(trifluoromethyl)phenyl)quinazolin-6-yl)pyridin-2-amine]: < 100 nM; for `Nc1cc(-c2ccc3ncnc(-c4ccc(N5CCN(CC6COC6)CC5)c(F)c4)c3c2)ccn1` [Compound 64, 4-(4-(3-fluoro-4-(4-(oxetan-3-ylmethyl)piperazin-1-yl)phenyl)quinazolin-6-yl)pyridin-2-amine]: < 100 nM.
